Measurements published in patent US20070287180A1, “Linear Dna Fragment For Markerless Deletion, Novel Strain Having Inhibited Formation Of Biofilm And Preparation Method Thereof” (priority 2004, published 2007).

Tested on: E. coli DEB31
Assay: Antibiotics susceptibility of biofilm-grown cells, plate counting (modified Whiteley method)
Type: cell-based, Escherichia coli
Conditions: for antibiotic concentration at which the number of living E. coli DEB31 equals that of wild-type MG1655 at the standard concentration: 24 h biofilm, then 10 h antibiotic at 30° C., MG1655 standard concentration: ampicillin 50, streptomycin 30, rifampicin 150 μg/ml
Experimental: The antibiotics susceptibility of the variants was measured using the modified technique developed by Whiteley (Whiteley M., Nature, 413, 860, 2001). In other words, 96-well polystyrene plates containing 0.2 ml of LB culture were inoculated with the variants to be incubated for 24 hours to allow biofilm formation. Each well was added with various concentrations of antibiotics ranging from 0.25 μg to 64 μg and were incubated for 10 hours. The number of living cells was measured by plate counting method.
After incubating the variants in 96-well plates containing 200 μl of LB medium for 24 hours, the serial diluted antibiotics was added to each well at the following concentration ranges: ampicillin, from 0 to 128 μg/ml; streptomycin, from 0 to 64 μg/ml; and rifampicin, from 0 to 256 μg/ml. The cells were incubated for additional 10 hours at 30° C. after antibiotics addition. Then, the number of the living E. coli variants was counted using the standard plate counting method.

SMILES	antibiotic concentration at which the number of living E. coli DEB31 equals that of wild-type MG1655 at the standard concentration	increase of antibiotics susceptibility versus wild-type MG1655 (DEB31 / biofilm-deficient variants vs MG1655)
CC1(C)S[C@@H]2[C@H](NC(=O)[C@H](N)c3ccccc3)C(=O)N2[C@H]1C(=O)O [ampicillin]	2 µg/mL	–
CO[C@H]1/C=C/O[C@@]2(C)Oc3c(C)c(O)c4c(O)c(c(/C=N/N5CCN(C)CC5)c(O)c4c3C2=O)NC(=O)/C(C)=C\C=C\[C@H](C)[C@H](O)[C@@H](C)[C@@H](O)[C@@H](C)[C@H](OC(C)=O)[C@@H]1C [rifampicin]	32 µg/mL	about 5 fold
[H]/N=C(/N)N[C@H]1[C@H](O)[C@@H](O)[C@H](O[C@@H]2O[C@@H](C)[C@](O)(C=O)[C@H]2O[C@@H]2O[C@@H](CO)[C@H](O)[C@@H](O)[C@@H]2NC)[C@@H](N/C(N)=N\[H])[C@@H]1O [streptomycin]	8 µg/mL	–
